Literature values in patent publication US8673971B2, “Derivatives of 4-nerolidylcatechol, pharmaceutical compositions comprising them and process for producing the same” (Instituto Nacional de Pesquisa de Amazonia INPA, priority 2007, dated 2014).

Assays:
[1] = tests based on co-oxidation of substrate (β-carotene, linoleic acid); greater than α-tocoferol

water solubility: low water solubility
SMILES: C=CC(C)(CCC=C(C)CCC=C(C)C)c1ccc(O)c(O)c1 (centres unmarked) [4-nerolidylcatechol]
in vitro antioxidant activity relative to α-tocoferol [1]: 20 times
